Like-named read-outs stand apart in the source and are kept apart here.
Columns and labels:
A. nidulans = experiment: Growth test on plates at different ligand concentrations; format: cell-based, Aspergillus nidulans
Procedure: Induction of estrogen receptor expression via the addition of […], 100 nM, and 1 μM of DES inducer to media plates harboring the Xgal substrate for LacZ in the transformed strain: A. nidulans argB2, riboA1, pyrG 89, pyroA4. FIG. 6. […] Activation of the reporter construct at 1 nM DES was shown in the transformed fungi.

[1] = test system: alcA promoter of A. nidulans; settings: pRM alcA, induction with ethanol
Procedure: To test the different inducer concentrations the strains were harvested by filtration and aliquots were transferred to fresh media containing the different inducer concentrations and additionally grown for 8 hours. At the end mycelium was harvested by filtration and frozen in liquid nitrogen. For time curve experiments the strains were harvested and additionally grown for 24 hours and after 2, 4, 6, 8 and 24 hours samples were taken and frozen in liquid nitrogen. […] An equal amount of fungal cell mass has been transferred to fresh medium and aliquots have been subjected to induction by the agonists. After sampling at desired time points the wet cell pellet has been processed as described.
NaPO4 buffer and glasbeads (0.75-1.0 mm) were added to the frozen mycelia and cells were destroyed by the use of the Hybaid RiboLyser. Cell debris was separated by centrifugation and the supernatant was used for enzyme assays Protein concentration was determined using the BCA assay of Pierce and the specific β-galactosidase activity was determined by the use of the protocol of Invitrogen.
β-gal activity in each pERE constructs were assayed after induction with 1 nM DES. The alcA expression was also assayed for comparison.

## CC/C(=C(/CC)c1ccc(O)cc1)c1ccc(O)cc1 [DES, diethylstilbestrol]
A. nidulans; strains transformed with reporter constructs, 100 nM DES
  growth of strains transformed with reporter constructs: strong growth inhibition
A. nidulans; strains transformed with the hER, 1 nM DES
  growth of strains transformed with the hER: Growth inhibition
A. nidulans; wild type strain, DES concentrations up to 20 μM
  effect on growth of a wild type strain: do not affect the growth

## CCO [ethanol]
[1]; 24 h level over time 0 level
  Inducibility: 16.23
[1]; time 2 hours
  β-gal activity: 506.66 units per mg protein
[1]; time 4 hours
  β-gal activity: 714.43 units per mg protein
[1]; time 6 hours
  β-gal activity: 1327.44 units per mg protein
[1]; time 8 hours
  β-gal activity: 1431.02 units per mg protein
[1]; time 24 hours
  β-gal activity: 6082.59 units per mg protein

— patent US20070077642A1, “Steroid receptor modulation of gene expression” (priority 2002, published 2007)
